Among the data in patent publication US8258130B2 (Sanofi, priority 2007, dated 2012) are antiasthmatic effect, IC50 and PGDS inhibition values, retold here.

The test system of the first assay is rat.
Assay: not given
The following applies: rat model; cited from earlier work.
In the case of `c1ccc(C(OC2CCN(CCCc3nn[nH]n3)CC2)c2ccccc2)cc1` [HQL-79], the antiasthmatic effect entry is “antiasthmatic”.

The target of a further assay is human h-PGDS (Homo sapiens, UniProt O60760). Briefly: Enzyme Immunoassay (EIA) method, inhibition of hematopoietic PGD2 synthase. The class given is biochemical. The following applies: EIA assay, PGD2 formed from PGH2 by human h-PGDS. Here is the method: Assay 2: Enzyme Immunoassay (EIA) Method
human h-PGDS, sequence (O60760 whole entry): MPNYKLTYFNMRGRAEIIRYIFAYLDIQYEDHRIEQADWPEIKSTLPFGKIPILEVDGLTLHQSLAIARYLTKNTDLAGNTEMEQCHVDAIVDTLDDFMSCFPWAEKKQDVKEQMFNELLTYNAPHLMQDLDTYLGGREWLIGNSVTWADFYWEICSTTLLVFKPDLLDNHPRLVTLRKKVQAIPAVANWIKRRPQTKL
• a. Preparation of 0.1M K2HPO4/KH2PO4 buffer (pH 7.4) • Prepare 0.1 M KH2PO4 from 1M KH2PO4 (Sigma, Cat# P-8709) • Prepare 0.1 M K2HPO4 from powder of K2HPO4 (Fisher, BP363-500) • Mix 0.1 M K2HPO4 with 0.1 M KH2PO4 to adjust pH to 7.4. • b. Preparation of 0.5% γ-globulin • Add 0.1 g of γ-globulin (Sigma, Cat# G-5009) to 20 mL 0.1 M K2HPO4/KH2PO4 buffer (pH 7.4) and make 1-mL/vial aliquots and store in −80° C. • c. Preparation of 100 mM GSH • Add 307 mg of GSH (Sigma, Cat# G-6529) to 10 mL 0.1 M K2HPO4/KH2PO4 buffer (pH 7.4) and store at −80° C. • d. Preparation of Reaction buffer: • 198 mL of 0.1M K2HPO4/KH2PO4 buffer (pH 7.4) • 2 mM GSH—Prepared from 100 mM GSH • 0.4 g Glycerol • 2 mL of 0.5% γ-globulin • Add 0.4 g of glycerol and 2 mL of 0.5% γ-globulin to 198 mL of 0.1 M K2HPO4/KH2PO4 • buffer (pH7.4). • Add 0.4 mL of 100 mM GSH to 19.6 mL reaction buffer before the assay (enough for two 96-well plates). • e. Preparation of FeCl2/citric acid stopping solution: (8 mg/mL FeCl2, 0.1 M citric acid) • Add 40 mg fresh FeCl2 (IGN, Cat# 158046) to 5 mL 0.1 M citric acid (Sigma, Cat# C0759). • f. Preparation of MOX reagent: • 10% EtOH—Add 1 mL of EtOH to 9 mL of ultra pure H2O • Dissolve 0.1 g of methoxyl amine (Cayman, Cat# 400036/) in 10% EtOH (10 mL). • Add 0.82 g of sodium acetate (Cayman, Cat#400037) to MOX solution and dissolve. II. Materials and Method • Dimethylsulfoxide (DMSO; Sigma; Cat# D2650) • Prostaglandin D2-MOX express EIA kit (Caymen Chemical, Catalog No. 500151)
Before the assay, cool down 10 mL of acetone in polypropylene tubes and empty 96 well plates in ice. All the procedures except compound dilution are performed on ice.
• 1. Dilute compound in DMSO
• 2. Dilute 2 μL of each above concentration of compound to 38 μL of reaction buffer in 96-well plates and mix. IV. Enzyme and Substrate Solution Preparation • 1 Preparation of 0.39 ng/μL enzyme solution (0.35 ng/μL at final after compound addition). • Mix 4 μL of 4 mg/mL human h-PGDS with 396 μL of reaction buffer (to give enzyme concentration 40 μg/mL). Add 46.8 μL of 40 μg/mL h-PGDS to 4.753 mL of reaction buffer to give a total volume of 4.8 mL • 2. Preparation of Substrate Solution (PGH2): Add 0.375 mL of 0.1 mg/mL of PGH2 to 1.625 mL acetone. V. Enzyme Reaction: • 1. Add 60 μL of enzyme solution to compound well and positive control (without compound) in U-bottom polypropylene plate on ice. • 2. Add 60 μL of reaction buffer and 6.6 μL of 5% DMSO in reaction buffer into negative control wells in the plate. • 3. Add 6.6 μL of diluted compound in reaction buffer to the compound wells and mix. • 4. Add 6.6 μL of 5% DMSO in reaction buffer to the positive control well. • 5. Incubate the plate in ice for at least 30 min. • 6. Add 20 μL of substrate (PGH2) solution to compound, negative and positive control wells in the U-bottom 96 well plate on ice. • 7. Dry the plate in cold room for about 25-28 min. • 8. Pipette 45 μL of enzyme solution (above) into 96-wells with dried PGH2 and mix 3 times. Incubate on the ice for 1 min. • 9. Add 45 μL of FeCl2 solution into each wells and mix. • 10. Add 90 μL of MOX solution and mix. • 11. Incubate for 30 min at 60° C. • 12. Dilute the samples 2500× with EIA buffer. VI. EIA Assay • Perform the assay according to the procedure in EIA kit provided by Cayman. Total PGD2 levels (pg/mL) were determined in the samples by EIA kits (Caymen Chemical, Catalog No. 500151) Calculate Amount of PGD2 as Below • Calculated % Positive control according to the equation below; % Positive control=(Compound value−Negative control)/(Positive value−Negative control value)×100. […]
A word on the IC50: it is the concentration needed to halve the response being measured. Consider `Cc1nc(-c2cccc(F)c2)ncc1C(=O)NN(c1ccccc1)c1ccccc1` [Example 190, 2-(3-Fluoro-phenyl)-4-methyl-pyrimidine-5-carboxylic acid N′,N′-diphenyl-hydrazide], for which the IC50 was determined as 16 nM. `CCc1cn(NC(=O)c2cnc(-c3cccc(F)c3)nc2C)c2cnccc12` [Example 195, 2-(3-Fluoro-phenyl)-4-methyl-pyrimidine-5-carboxylic acid (3-ethyl-pyrrolo[2,3c]pyridin-1-yl)-amide]: the IC50 was determined as 7 nM. Compound `Cc1nc(-c2cccc(F)c2)ncc1C(=O)Nn1cc(C)c2ncccc21` [Example 197, 2-(3-Fluoro-phenyl)-4-methyl-pyrimidine-5-carboxylic acid (3-methyl-pyrrolo [32-b]pyridin-1-yl)-amide] returned an IC50 of 2 nM. `Cc1cn(NC(=O)c2cnc(-c3ccccn3)nc2C(F)(F)F)c2ccc(F)cc12` [Example 209, 2-Pyridin-2-yl-4-trifluoromethyl-pyrimidine-5-carboxylic acid (5-fluoro-3-methyl-indol-1-yl)-amide] yielded an IC50 of 8 nM.

The compound `O=C(NN1CCOc2ccc(F)cc21)c1cnc(-c2cccc(F)c2)nc1` [Example 211, 2-(3-Fluoro-phenyl)-pyrimidine-5-carboxylic acid (6-fluoro-2,3-dihydro-1,4-benzoxazin-4-yl)-amide] displayed an IC50 of 12 nM.

The compound `O=C(NN1CCOc2ccc(F)cc21)c1cnc(-c2ccccc2)nc1` [Example 212, 2-Phenyl-pyrimidine-5-carboxylic acid (6-fluoro-2,3-dihydro-1,4-benzoxazin-4-yl)-amide] registered an IC50 of 21 nM. Take `Cc1nc(-c2cccc[n+]2[O-])ncc1C(=O)Nn1cc(C)c2cc(F)ccc21` [Example 225, 4-Methyl-2-(1-oxy-pyridin-2-yl)-pyrimidin-5-carboxylic acid (5-fluoro-3-methyl-indol-1-yl)-amide]: the midpoint of inhibition, the IC50, lay at 851 nM. As for `Cc1cn(NC(=O)c2cnc(-c3cccc(C(F)F)c3)nc2)c2ccc(F)cc12` [Example 226, 2-(3-Difluoromethyl-phenyl)-pyrimidine-5-carboxylic acid (5-fluoro-3-methyl-indol-1-yl)-amide], the IC50 turned out to be 17 nM. Same read-out and setting: with `Cc1cn(NC(=O)c2cnc(-c3cccc(C(F)(F)F)c3)nc2)c2ccc(F)cc12` [Example 227, 2-(3-Trifluoromethyl-phenyl)-pyrimidine-5-carboxylic acid (5-fluoro-3-methyl-indol-1-yl)-amide] the figure was 262 nM.

For another assay, the system named is PGDS.
Assay: not given
The following applies: cited from earlier work.
Take `c1ccc(C(OC2CCN(CCCc3nn[nH]n3)CC2)c2ccccc2)cc1` [HQL-79]: the PGDS inhibition entry is recorded as “weak PGDS inhibitor”.

In another assay the test system is guinea pig.
Assay: not given
The following applies: guinea pig model; cited from earlier work.
`c1ccc(C(OC2CCN(CCCc3nn[nH]n3)CC2)c2ccccc2)cc1` [HQL-79]: the antiasthmatic effect entry is “antiasthmatic”.
